In patent publication US9982017B2, “Synthetic apelin mimetics for the treatment of heart failure” (priority 2012, dated 2018):
Where two headings read alike, the source gives them in different places. *1 amine or outer side, *2 acyl side, *3 side chain or, on linkers, in order; H or OH if unused. Where a SMILES comes first, the peptide text is derived from it. Bridges are numbered along the chain shown (N, C = ends). [ ]: non-standard residue; d: D form. The star is where a group is joined. Palmitoyl = CCCCCCCCCCCCCCCC(=O)*; pGlu = O=C1CC[C@@H](C(=O)O)N1; CH2COCH2 = O=C(C[*:1])C[*:2]; Nle = CCCC[C@H](N)C(=O)O; AEEA = NCCOCCOCC(=O)O; Inp = O=C(O)C1CCNCC1

Columns and labels:
hAPJ = molecular target: T1, hAPJ (Homo sapiens, UniProt P35414); assay: hAPJ Calcium Flux Assay; format: cell-based
T1 sequence (P35414 1-380): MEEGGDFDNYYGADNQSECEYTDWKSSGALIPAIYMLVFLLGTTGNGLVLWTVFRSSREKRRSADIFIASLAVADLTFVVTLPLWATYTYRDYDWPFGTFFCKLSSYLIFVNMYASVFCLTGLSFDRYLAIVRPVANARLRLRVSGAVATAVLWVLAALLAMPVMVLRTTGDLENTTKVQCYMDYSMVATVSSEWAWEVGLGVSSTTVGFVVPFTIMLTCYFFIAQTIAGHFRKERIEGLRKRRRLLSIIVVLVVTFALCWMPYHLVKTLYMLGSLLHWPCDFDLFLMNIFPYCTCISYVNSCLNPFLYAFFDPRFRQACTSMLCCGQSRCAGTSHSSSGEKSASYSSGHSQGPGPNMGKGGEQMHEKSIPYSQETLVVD
Description: Chem-5 APJ stable cells (Millipore # HTS068C) were plated in 384-well format with 10,000 cells/well in 25 ul growth media, then grown 24 hours in a 37° C. tissue culture incubator. One hour before the assay, 25 ul/well FLIPR Calcium 4 dye (Molecular Devices R8142) with 2.5 mM probenecid was added, and cells were incubated one hour in a 37° C. tissue culture incubator. Peptides were solubilized in HBSS, HEPES & 0.1% BSA buffer, and serially-diluted 10-fold, from 50 uM to 5 pM, in triplicate. FLIPR Tetra was used to add peptide to the cells with dye (1:5, for final peptide concentrations ranging from 10 uM to 1 pM). FLIPR dye inside the cells emitted fluorescence after binding to calcium, while fluorescence from outside the cells was masked. Fluorescence was measured using 470-495 excitation and 515-575 emission wavelengths on the FLIPR Tetra. Readings were done for 3 minutes total, beginning 10 seconds before the peptide addition. Maximum-minimum values were calculated and plotted for each peptide concentration, and Graph Pad prism software was used to calculate EC50 values at the curve inflection points, for calcium flux stimulation by peptides.

[1] = Surrogate Activity-Based Plasma Stability Assay (calcium flux EC50 after incubation with 5% rat plasma); details: not told
[2] = Plasma Stability Assay (LC-MS); format: in vitro ADME; details: male, Sprague-Dawley, heparinized rat plasma, 37° C., Table 3, read-out: Plasma stability t½
Description: • Working solution: 1 mg/mL test article is prepared in Milli-Q water • Extraction solution: Methanol:Acetonitrile:Water (1:1:1) with 0.1% Formic Acid and 400 ng/mL Glyburide. • Plasma: Male Sprague-Dawley rat plasma (with sodium heparin), purchased from Bioreclamation LLC (Liverpool, N.Y.). • Whole blood: Male Sprague Dawley whole blood (with sodium heparin), purchased from Bioreclamation LLC (Liverpool, N.Y.) • Lung homogenate: Male rat Sprague Dawley lung was purchased from Bioreclamation LLC (Liverpool, N.Y.). The lung was homogenized using polytron homogenizer after addition of 5× volume of 1×PBS. The homogenate was centrifuged at 9000 rpm for 10 min at 4° C. The supernatant was centrifuged again at 3000 rpm for 30 min to make a clear supernatant. Protein concentration was determined using a commercial kit (Pierce, Thermo Scientific). Sample Preparation Procedure:
Test article was prepared in one of the following biological matrices: heparinized rat plasma, heparinized rat whole blood or lung homogenate. The plasma and whole blood sample was prepared at 5000 ng/mL by adding 5 uL of 1 mg/mL Working solution to 995 uL of rat plasma or whole blood. Lung homogenate samples were prepared by diluting lung homogenate to 1 mg/ml protein concentration with phosphate buffered saline (PBS), followed by addition of 5 uL Working solution to 995 uL diluted lung homogenate. The samples were incubated at 37° C. with gentle shaking (65˜75 rpm) in a water bath incubator. At times 0 min, 5 min, 15 min, 30 min, 60 min, 120 and 240 min, 25 uL aliquots of incubation samples were transferred to 96-well plate and immediately protein precipitated using 150 uL of Extraction solution. After completion of incubation experiment, the sample plate was centrifuged at 4000 rpm at 4° C. for 10 minutes. Afterwards, a pipetting device (Tecan Temo) was used to tranfer the supernatants to another plate and add 50 uL of water to all samples. The plate was vortexed prior to LC-MS analysis. • LC-MS Analysis of Stability Samples • HPLC: Agilent 1290 HPLC with autosampler • Column: MAC-MOD ACE C18, 3 μm, 30 mm×2.1 mm i.d. • Mobile phase A: 0.1% Formic acid in acetonitrile • Mobile phase B: 0.1% Formic acid in water Gradient Program: […]

in vitro = details: rat, not told
[3] = Surrogate Activity based Plasma stability t½
[4] = Surrogate activity-based Plasma stability t½

half-life (in vitro; [4])	SMILES	half-life [1]	other results
	CCCC[C@@H]1NC(=O)[C@@H]2CCCN2C(=O)CNC(=O)[C@H](CCCCN)NC(=O)[C@H](Cc2ccccc2)NC(=O)[C@@H]2CSSC[C@H](NC1=O)C(=O)N[C@@H](Cc1ccccc1)C(=O)NCC(=O)NCC(=O)N[C@@H](CCC(N)=O)C(=O)N[C@@H](CCCNC(=N)N)C(=O)N1CCC[C@H]1C(=O)N[C@@H](CCCNC(=N)N)C(=O)N[C@@H](CC(C)C)C(=O)N2 [Example 7, Q-R-P-R-L-C-F-K-G-P-Nle-C-F-G-G] (cyclo(CFGGQRPRLCFKGP[Nle]); disulfide 1-10)	> 16.7 h	EC50 (hAPJ): 0.0909 µM
0.235 h	CCCC[C@@H]1NC(=O)[C@@H]2CCCN2C(=O)CNC(=O)[C@H](CCCCN)NC(=O)[C@H](Cc2c[nH]cn2)NC(=O)[C@@H](NC(=O)[C@H](CC(C)C)NC(=O)[C@H](CCCNC(=N)N)NC(=O)[C@@H]2CCCN2C(=O)[C@H](CCCNC(=N)N)NC(=O)[C@@H](N)CCCNC(=N)N)CSSC[C@@H](C(=O)N[C@@H](Cc2ccccc2)C(=O)O)NC1=O [Example 17, H-R-R-P-R-L-C-H-K-G-P-Nle-C-F-OH] (H-RRPRLCHKGP[Nle]CF-OH; disulfide 6-12)		half-life at 5000 ng/mL [2]: 0.0383 h; half-life (in vitro; [3]): 0.235 h
4.13 h	CCCC[C@@H]1NC(=O)[C@@H]2CCCN2C(=O)CNC(=O)[C@H](CCCCN)NC(=O)[C@H](Cc2c[nH]cn2)NC(=O)[C@@H](NC(=O)[C@H](CC(C)C)NC(=O)[C@H](CCCNC(=N)N)NC(=O)[C@@H]2CCCN2C(=O)[C@H](CCCNC(=N)N)NC(=O)C2CCNCC2)CSSC[C@@H](C(=O)N[C@@H](Cc2ccccc2)C(=O)O)NC1=O [Example 18, H-Isn-R-P-R-L-C-H-K-G-P-Nle-C-F-OH] (H-[Inp]RPRLCHKGP[Nle]CF-OH; disulfide 6-12)		half-life at 5000 ng/mL [2]: 3.67 h; half-life (in vitro; [3]): 4.13 h
5.06 h	CCCCCCCCCCCCCCCC(=O)NCCOCCOCC(=O)N[C@@H](CCC(N)=O)C(=O)N[C@@H](CCCNC(=N)N)C(=O)N1CCC[C@H]1C(=O)N[C@@H](CCCNC(=N)N)C(=O)N[C@@H](CC(C)C)C(=O)N[C@H]1CSSC[C@@H](C(=O)N[C@@H](Cc2ccccc2)C(=O)O)NC(=O)[C@H](CCCC)NC(=O)[C@@H]2CCCN2C(=O)CNC(=O)[C@H](CCCCN)NC(=O)[C@H](Cc2c[nH]cn2)NC1=O [Example 24, Palmitoyl-O2Oc-Q-R-P-R-L-C-H-K-G-P-Nle-C-F-OH] ({Palmitoyl-AEEA}-QRPRLCHKGP[Nle]CF-OH; disulfide 6-12)		EC50 (hAPJ; Chem-5 APJ stable cells, FLIPR Calcium 4 dye, read-out: hAPJ Ca^2+ Flux EC50): 0.0327 µM
	CCCC[C@@H]1NC(=O)[C@@H]2CCCN2C(=O)CNC(=O)[C@H](CCCCN)NC(=O)[C@@H]2CSSC[C@H](NC(=O)[C@@H]3CCCN3C(=O)[C@H](CCCNC(=N)N)NC(=O)[C@@H]3CCC(=O)N3)C(=O)N[C@@H](CC(C)C)C(=O)N[C@@H](CSSC[C@@H](C(=O)N[C@@H](Cc3ccccc3)C(=O)O)NC1=O)C(=O)N2 [Example 28, pE-R-P-C-L-C-C-K-G-P-Nle-C-F-OH] ([pGlu]RPCLCCKGP[Nle]CF-OH; disulfide 4-7, 6-12)	7.34 h	
	CCCC[C@@H]1NC(=O)[C@@H]2CCCN2C(=O)CNC(=O)[C@H](CCCCN)NC(=O)[C@@H]2CSSC[C@H](NC(=O)[C@H](CCCNC(=N)N)NC(=O)[C@@H]3CCC(=O)N3)C(=O)N[C@@H](CCCNC(=N)N)C(=O)N[C@@H](CC(C)C)C(=O)N[C@@H](CSSC[C@@H](C(=O)N[C@@H](Cc3ccccc3)C(=O)O)NC1=O)C(=O)N2 [Example 29, pE-R-C-R-L-C-C-K-G-P-Nle-C-F-OH] ([pGlu]RCRLCCKGP[Nle]CF-OH; disulfide 3-7, 6-12)	3.61 h	
	CCCC[C@@H]1NC(=O)[C@@H]2CCCN2C(=O)CNC(=O)[C@H](CCCCN)NC(=O)[C@H](Cc2cnc[nH]2)NC(=O)[C@@H](NC(=O)[C@H](CC(C)C)NC(=O)[C@H](CCCNC(=N)N)NC(=O)[C@@H]2CCCN2C(=O)[C@H](CCCNC(=N)N)NC(=O)[C@@H]2CCC(=O)N2)CSCC(=O)CSC[C@@H](C(=O)N[C@@H](Cc2ccccc2)C(=O)O)NC1=O [Example 64, (S)-2-((3S,6R,14R,17S,20S,28aS)-17-((1H-imidazol-5-yl)methyl)-20-(4-aminobutyl)-3-butyl-14-((S)-2-((S)-5-guanidino-2-((S)-1-((S)-5-guanidino-2-((S)-5-oxopyrrolidine-2-carboxamido)pentanoyl)pyrrolidine-2-carboxamido)pentanamido)-4-methylpentanamido)-1,4,10,15,18,21,24-heptaoxohexacosahydropyrrolo[2,1-i][1,23,4,7,10,13,16,19]dithiahexaazacyclohexacosine-6-carboxamido)-3-phenylpropanoic acid] ([pGlu]RPRLCHKGP[Nle]CF-OH; linker 6-12 via CH2COCH2)	7.58 h	
